Laboratory results reported in ChEMBL document CHEMBL5505992, “Novel membrane-targeting isoxanthohumol-amine conjugates for combating methicillin-resistant Staphylococcus aureus (MRSA) infections” (Eur J Med Chem, 2024).
Values after ≈ are worked out from the molar mass of the structure shown.

Assays:
[1] = test system: Staphylococcus aureus; experiment: Antibacterial activity against methicillin-resistant Staphylococcus aureus clinical isolate MRSA-11 measured after 16 to 18 hrs by CLSI method; type: functional; settings: time 16-18 hrs
[2] = Hemolytic activity in sheep erythrocytes incubated for 1 hr by absorbance based analysis; type: toxicity, cell-based, Ovis aries, Erythrocyte
[3] = test system: Staphylococcus aureus; experiment: Antibacterial activity against methicillin-resistant Staphylococcus aureus clinical isolate MRSA-13 measured after 16 to 18 hrs by CLSI method; type: functional; settings: time 16-18 hrs
[4] = test system: Staphylococcus aureus; experiment: Antibacterial activity against methicillin-resistant Staphylococcus aureus clinical isolate MRSA-17 measured after 16 to 18 hrs by CLSI method; type: functional; settings: time 16-18 hrs
[5] = test system: Staphylococcus aureus; experiment: Antibacterial activity against methicillin-resistant Staphylococcus aureus clinical isolate MRSA-22 measured after 16 to 18 hrs by CLSI method; type: functional; settings: time 16-18 hrs
[6] = Selectivity index, ratio of HC50 for hemolytic activity in sheep erythrocytes to MIC for antibacterial activity against Staphylococcus aureus ATCC 29213; type: toxicity, cell-based; settings: read-out: Selectivity Index
[7] = test system: Staphylococcus aureus; experiment: Antibacterial activity against methicillin-resistant Staphylococcus aureus clinical isolate MRSA-16 measured after 16 to 18 hrs by CLSI method; type: functional; settings: time 16-18 hrs
[8] = test system: Staphylococcus aureus; experiment: Antibacterial activity against Staphylococcus aureus ATCC 29213 measured after 16 to 18 hrs by CLSI method; type: functional; settings: time 16-18 hrs
[9] = test system: Staphylococcus aureus; experiment: Antibacterial activity against methicillin-resistant Staphylococcus aureus clinical isolate MRSA-23 measured after 16 to 18 hrs by CLSI method; type: functional; settings: time 16-18 hrs
[10] = test system: Staphylococcus aureus; experiment: Antibacterial activity against methicillin-resistant Staphylococcus aureus clinical isolate MRSA-18 measured after 16 to 18 hrs by CLSI method; type: functional; settings: time 16-18 hrs
[11] = test system: Staphylococcus aureus; experiment: Antibacterial activity against methicillin-resistant Staphylococcus aureus clinical isolate MRSA-21 measured after 16 to 18 hrs by CLSI method; type: functional; settings: time 16-18 hrs
[12] = test system: Staphylococcus aureus; experiment: Antibacterial activity against methicillin-resistant Staphylococcus aureus clinical isolate MRSA-20 measured after 16 to 18 hrs by CLSI method; type: functional; settings: time 16-18 hrs
[13] = test system: Staphylococcus aureus; experiment: Antibacterial activity against methicillin-resistant Staphylococcus aureus clinical isolate MRSA-14 measured after 16 to 18 hrs by CLSI method; type: functional; settings: time 16-18 hrs
[14] = test system: Escherichia coli; experiment: Antibacterial activity against Escherichia coli ATCC25922 measured after 16 to 18 hrs by CLSI method; type: functional; settings: time 16-18 hrs

Row | Compound | MIC [1] [mg/L] | HC50 at 1 h [2] [µg/mL] | MIC [3] [mg/L] | MIC [4] [mg/L] | MIC [5] [mg/L] | selectivity ratio [6] | MIC [7] [mg/L] | MIC [8] [mg/L] | MIC [9] [mg/L] | MIC [10] [mg/L] | MIC [11] [mg/L] | MIC [12] [mg/L] | MIC [13] [mg/L] | MIC [14] [mg/L]
1 | COc1cc(OCCCCN2CCCC(C)C2)c(CC=C(C)C)c2c1C(=O)CC(c1ccc(OCCCCN3CCCC(C)C3)cc1)O2 (centres undefined) | 8 (≈ 12.1 µM) | 120 | 8 (≈ 12.1 µM) | 8 (≈ 12.1 µM) | 8 (≈ 12.1 µM) | > 7.5 | 8 (≈ 12.1 µM) | 16 (≈ 24.2 µM) | 16 (≈ 24.2 µM) | 16 (≈ 24.2 µM) | 16 (≈ 24.2 µM) | 8 (≈ 12.1 µM) | 8 (≈ 12.1 µM) | > 128
2 | COc1cc(OCCCCN(CC(C)C)CC(C)C)c(CC=C(C)C)c2c1C(=O)CC(c1ccc(OCCCCN(CC(C)C)CC(C)C)cc1)O2 (centres undefined) | > 128 | > 1280 | > 128 | > 128 | > 128 | – | > 128 | > 128 | > 128 | > 128 | > 128 | > 128 | > 128 | > 128
3 | COc1cc(OCCCCCN2CCN(C)CC2)c(CC=C(C)C)c2c1C(=O)CC(c1ccc(OCCCCCN3CCN(C)CC3)cc1)O2 (centres undefined) | 16 (≈ 23.2 µM) | > 1280 | 16 (≈ 23.2 µM) | 8 (≈ 11.6 µM) | 16 (≈ 23.2 µM) | > 80 | 16 (≈ 23.2 µM) | 16 (≈ 23.2 µM) | 16 (≈ 23.2 µM) | 16 (≈ 23.2 µM) | 16 (≈ 23.2 µM) | 16 (≈ 23.2 µM) | 16 (≈ 23.2 µM) | > 128
4 | CCCCN(CCCC)CCCCOc1ccc(C2CC(=O)c3c(OC)cc(OCCCCN(CCCC)CCCC)c(CC=C(C)C)c3O2)cc1 (centres undefined) | 8 (≈ 11.1 µM) | 1200 | 8 (≈ 11.1 µM) | 4 (≈ 5.55 µM) | 8 (≈ 11.1 µM) | 300 | 4 (≈ 5.55 µM) | 4 (≈ 5.55 µM) | 8 (≈ 11.1 µM) | 8 (≈ 11.1 µM) | 8 (≈ 11.1 µM) | 4 (≈ 5.55 µM) | 4 (≈ 5.55 µM) | > 128
5 | COc1cc(OCCCCN2CCOCC2)c(CC=C(C)C)c2c1C(=O)CC(c1ccc(OCCCCN3CCOCC3)cc1)O2 (centres undefined) | 64 (≈ 100 µM) | > 640 | 64 (≈ 100 µM) | 32 (≈ 50.2 µM) | 32 (≈ 50.2 µM) | > 20 | > 128 | 32 (≈ 50.2 µM) | 32 (≈ 50.2 µM) | 32 (≈ 50.2 µM) | 64 (≈ 100 µM) | 32 (≈ 50.2 µM) | 64 (≈ 100 µM) | > 128
